How the values were obtained:
[1] = molecular target: T1, Homeodomain-interacting protein kinase 4 (Homo sapiens, UniProt Q8NE63); test: Inhibition of HIPK4 (unknown origin)
T1 sequence (Q8NE63 whole entry): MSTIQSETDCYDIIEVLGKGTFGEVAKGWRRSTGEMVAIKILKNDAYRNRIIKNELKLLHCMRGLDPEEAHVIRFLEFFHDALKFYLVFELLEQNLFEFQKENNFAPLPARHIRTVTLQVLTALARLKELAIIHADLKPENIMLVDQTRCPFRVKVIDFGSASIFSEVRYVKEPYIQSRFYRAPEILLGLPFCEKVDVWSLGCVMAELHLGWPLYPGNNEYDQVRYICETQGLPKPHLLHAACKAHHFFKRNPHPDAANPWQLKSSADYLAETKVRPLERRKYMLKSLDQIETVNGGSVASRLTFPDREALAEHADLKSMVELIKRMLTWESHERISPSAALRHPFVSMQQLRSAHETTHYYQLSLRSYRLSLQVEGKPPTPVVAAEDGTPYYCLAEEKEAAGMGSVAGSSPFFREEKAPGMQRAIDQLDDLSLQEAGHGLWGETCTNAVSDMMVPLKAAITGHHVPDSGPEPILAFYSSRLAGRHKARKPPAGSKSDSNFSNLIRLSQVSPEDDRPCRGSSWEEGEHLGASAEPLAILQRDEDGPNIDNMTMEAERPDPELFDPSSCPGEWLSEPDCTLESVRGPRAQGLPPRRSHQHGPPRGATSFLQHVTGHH

[2] = molecular target: T2, Muscle, skeletal receptor tyrosine-protein kinase (Homo sapiens) (UniProt O15146); test: Inhibition of MUSK (unknown origin) at 0.5 uM relative to control
T2 sequence (whole entry): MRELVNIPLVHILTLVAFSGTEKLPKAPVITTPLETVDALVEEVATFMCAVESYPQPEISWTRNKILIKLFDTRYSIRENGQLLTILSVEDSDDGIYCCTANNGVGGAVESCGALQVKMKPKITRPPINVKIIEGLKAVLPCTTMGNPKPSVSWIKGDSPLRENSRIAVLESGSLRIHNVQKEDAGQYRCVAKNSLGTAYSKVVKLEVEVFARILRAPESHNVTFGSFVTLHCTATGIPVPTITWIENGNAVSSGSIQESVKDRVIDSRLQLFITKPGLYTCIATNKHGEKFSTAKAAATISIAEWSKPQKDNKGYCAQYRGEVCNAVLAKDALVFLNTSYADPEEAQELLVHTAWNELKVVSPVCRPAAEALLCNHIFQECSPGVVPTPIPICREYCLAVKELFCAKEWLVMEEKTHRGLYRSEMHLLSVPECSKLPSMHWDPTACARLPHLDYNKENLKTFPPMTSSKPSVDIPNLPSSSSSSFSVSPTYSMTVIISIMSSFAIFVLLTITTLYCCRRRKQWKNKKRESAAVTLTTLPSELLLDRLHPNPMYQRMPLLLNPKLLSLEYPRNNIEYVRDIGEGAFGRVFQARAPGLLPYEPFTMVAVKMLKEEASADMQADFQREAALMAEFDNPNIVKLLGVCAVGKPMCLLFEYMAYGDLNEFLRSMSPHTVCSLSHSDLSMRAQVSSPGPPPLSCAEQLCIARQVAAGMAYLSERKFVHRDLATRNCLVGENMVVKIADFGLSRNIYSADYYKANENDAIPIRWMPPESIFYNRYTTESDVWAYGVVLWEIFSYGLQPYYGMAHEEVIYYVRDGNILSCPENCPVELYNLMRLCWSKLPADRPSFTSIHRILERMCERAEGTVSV

[3] = molecular target: T3, Tyrosine-protein kinase receptor TYRO3 (Homo sapiens) (UniProt Q06418); test: Inhibition of TYRO3 (unknown origin) at 0.5 uM relative to control
T3 sequence (whole entry): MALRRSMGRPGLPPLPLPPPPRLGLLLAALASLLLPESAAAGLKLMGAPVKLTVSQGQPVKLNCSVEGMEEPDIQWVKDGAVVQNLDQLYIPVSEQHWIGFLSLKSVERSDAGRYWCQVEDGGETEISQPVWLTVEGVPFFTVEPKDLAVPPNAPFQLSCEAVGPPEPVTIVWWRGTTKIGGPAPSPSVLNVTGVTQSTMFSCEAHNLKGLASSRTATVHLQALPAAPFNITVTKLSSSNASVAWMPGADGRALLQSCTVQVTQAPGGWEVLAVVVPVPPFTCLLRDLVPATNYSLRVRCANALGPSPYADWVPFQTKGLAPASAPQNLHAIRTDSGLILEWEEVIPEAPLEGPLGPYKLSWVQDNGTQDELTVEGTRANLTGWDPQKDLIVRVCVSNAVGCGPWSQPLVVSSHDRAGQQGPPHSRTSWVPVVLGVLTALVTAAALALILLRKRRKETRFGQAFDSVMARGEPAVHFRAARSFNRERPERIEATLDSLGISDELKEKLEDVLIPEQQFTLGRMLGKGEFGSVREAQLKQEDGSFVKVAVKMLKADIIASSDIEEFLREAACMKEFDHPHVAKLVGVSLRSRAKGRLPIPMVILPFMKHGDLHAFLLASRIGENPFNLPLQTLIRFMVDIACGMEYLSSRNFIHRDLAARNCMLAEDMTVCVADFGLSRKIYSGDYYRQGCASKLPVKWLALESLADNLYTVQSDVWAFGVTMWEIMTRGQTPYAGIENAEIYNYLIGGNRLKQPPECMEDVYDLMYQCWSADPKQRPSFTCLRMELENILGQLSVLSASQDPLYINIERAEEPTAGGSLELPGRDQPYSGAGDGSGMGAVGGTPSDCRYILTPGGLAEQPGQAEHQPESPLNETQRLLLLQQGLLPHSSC

[4] = molecular target: Receptor-type tyrosine-protein kinase FLT3 (Homo sapiens) (UniProt P36888); test: Inhibition of FLT3 (unknown origin) at 0.5 uM relative to control
Sequence of Receptor-type tyrosine-protein kinase FLT3 (Homo sapiens) (P36888 whole entry): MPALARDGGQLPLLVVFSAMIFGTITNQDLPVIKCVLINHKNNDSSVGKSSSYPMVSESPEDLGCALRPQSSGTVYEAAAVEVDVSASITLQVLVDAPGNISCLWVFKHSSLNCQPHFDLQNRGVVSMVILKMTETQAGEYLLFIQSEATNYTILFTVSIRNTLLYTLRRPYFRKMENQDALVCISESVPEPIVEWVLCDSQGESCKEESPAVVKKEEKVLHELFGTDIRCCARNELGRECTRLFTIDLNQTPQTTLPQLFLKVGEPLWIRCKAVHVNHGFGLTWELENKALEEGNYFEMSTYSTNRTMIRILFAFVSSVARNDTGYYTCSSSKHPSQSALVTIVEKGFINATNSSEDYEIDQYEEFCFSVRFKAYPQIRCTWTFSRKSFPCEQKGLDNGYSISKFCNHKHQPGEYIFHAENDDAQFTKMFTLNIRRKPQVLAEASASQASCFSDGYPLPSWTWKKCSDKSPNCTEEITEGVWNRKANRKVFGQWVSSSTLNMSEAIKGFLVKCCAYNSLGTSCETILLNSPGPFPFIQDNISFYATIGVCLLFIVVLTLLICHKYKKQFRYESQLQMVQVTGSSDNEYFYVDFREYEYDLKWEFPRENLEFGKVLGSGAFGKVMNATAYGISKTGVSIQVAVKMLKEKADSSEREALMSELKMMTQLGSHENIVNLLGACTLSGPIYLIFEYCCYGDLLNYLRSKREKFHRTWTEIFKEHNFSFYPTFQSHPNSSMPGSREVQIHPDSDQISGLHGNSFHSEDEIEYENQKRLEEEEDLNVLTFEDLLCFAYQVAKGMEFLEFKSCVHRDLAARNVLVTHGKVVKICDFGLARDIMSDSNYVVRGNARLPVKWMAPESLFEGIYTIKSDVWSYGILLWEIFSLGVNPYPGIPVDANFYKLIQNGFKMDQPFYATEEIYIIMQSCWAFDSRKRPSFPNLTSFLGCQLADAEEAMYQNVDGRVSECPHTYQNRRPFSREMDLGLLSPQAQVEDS

SMILES	IC50 [1] [nM]	inhibition [2] [%]	inhibition [3] [%]	inhibition [4] [%]
CNC(=O)c1cc(Oc2ccc(NC(=O)c3nc(SC)[nH]c3-c3ccc(F)cc3)cc2)ccn1	19	97	87	
CNC(=O)c1cc(Oc2ccc(NC(=O)c3nc(NC)sc3-c3ccc(F)cc3)cc2)ccn1	5.2	51	59	
CSc1nc(C(=O)Nc2ccc(Oc3cc4cnn(C)c4cc3Br)cc2)c(-c2ccc(F)cc2)o1	32			27
CNC(=O)c1cc(Oc2ccc(NC(=O)c3nc(SC)oc3-c3ccc(F)cc3)cc2)ccn1	3.3		82	
CNC(=O)c1cc(Oc2ccc(NC(=O)c3n[nH]nc3-c3ccc(F)cc3)cc2)ccn1	49	25		44

More lines, now with the values ahead:

IC50 [1] [nM]	inhibition [2] [%]	inhibition [3] [%]	inhibition [4] [%]	SMILES
9.6	34	65	39	CNC(=O)c1cc(Oc2ccc(NC(=O)c3nc(C(F)(F)F)sc3-c3ccc(F)cc3)cc2)ccn1
5.1	70	70	56	CNC(=O)c1cc(Oc2ccc(NC(=O)c3nc(S(C)(=O)=O)sc3-c3ccc(F)cc3)cc2)ccn1
2.8		70	36	CNC(=O)c1cc(Oc2ccc(NC(=O)c3nc(SC)oc3-c3ccc(F)cc3)cc2F)ccn1
23	29	52	50	CNC(=O)c1cc(Oc2ccc(NC(=O)c3nc(SC)n(CCN(C)C)c3-c3ccc(F)cc3)cc2)ccn1

— ChEMBL document CHEMBL4806968, “Hipk inhibitors and methods of use thereof” (2020)
